Source: patent publication US6916923B2 (Hoffmann-La Roche Inc., priority 1999, dated 2005)

Columns and labels:
[1] = tested on: colon adenocarcinoma line SW480; assay: SW480 cell-based antiproliferative (MTT) assay; settings: Homo sapiens, SW480, 144 h, 1000 cells per well, 6 days post addition of test compound, read-out: Antiproliferative Activity SW480 (colon) Assay - IC50 Range
Experimental: (§1) The estrogen receptor negative epithelial breast carcinoma line (MDA-MB-435) was purchased from American Type Cell Culture Collection (ATCC; Rockville, Md.) and was grown in the medium recommended by ATCC. For analysis of the effect of the test compounds on growth of these cells, the cells were plated at 2000 cells per well in a 96-well tissue culture plate, and were incubated overnight at 37° C. with 5% CO2. The next day, the test compounds were dissolved in 100% dimethyl sulfoxide (DMSO) to yield a 10 mM stock solution. Each compound was diluted with sterile medium to 1 mM in a sufficient quantity to yield a final concentration of 120 μM. The compounds were then serially diluted in medium with 1.2% DMSO. One-fourth final volume of the diluted compounds was transferred to 96 well plates. Test compounds were assayed in duplicate. DMSO was added to a row of “control cells” such that the final concentration of DMSO in each well was 0.3%. Wells to which no cells were added served as the “blank.” Wells to which no inhibitor was added served as “no inhibitor control”. The plates were returned to the incubator, and 5 days post addition of test compound, were analyzed as described below.
(§2) 3-(4,5-Dimethylthiazole-2-yl)-2,5-diphenyl-2H-tetrazolium bromide (thiazolyl blue; MTT) was added to each well to yield a final concentration of 1 mg/mL. The plates were then incubated at 37° C. for 3 hours. The plates were centrifuged at 1000 rpm for 5 minutes prior to aspiration of the MTT-containing medium. The MTT-containing medium was then removed and 100 μL 100% ethanol was added to each well to dissolve the resulting formazan metabolite. To ensure complete dissolution, plates were shaken for 15 minutes at room temperature. Absorbencies were read in a microtiter plate reader (Molecular Dynamics) at a wavelength of 570 nm with a 650 nm reference. Percent inhibition was calculated by subtracting the absorbance of the blank (no cell) wells from all wells, then subtracting the division of the average absorbance of each test duplicate by the average of the controls from 1.00. Inhibitory concentrations (IC50) were determined from the linear regression of a plot of the logarithm of the concentration versus the percent inhibition.
(§3) The colon adenocarcinoma line SW480 and the colon carcinoma line HCT-116 also were obtained from the ATCC and were tested according to the same protocol provided above for MDA-MB435 cell based assay with the following modifications. Cell line SW480 was plated at 1000 cells per well and analyzed at 6 days post addition of the test compound. Cell line HCT-116 was plated at 1000 cells per well and analyzed at 4 days post addition of test compound.

[2] = tested on: colon carcinoma line HCT-116; assay: HCT-116 cell-based antiproliferative (MTT) assay; settings: Homo sapiens, HCT-116, 96 h, 1000 cells per well, 4 days post addition of test compound, read-out: Antiproliferative Activity HCT 116 (colon) Assay - IC50 Range
Experimental: as §1, §2, §3

[3] = target: T1, Recombinant active human Cyclin E/CDK2 complexes (Homo sapiens, UniProt P24941); assay: CDK2 FlashPlate Assay (inhibition of Rb phosphorylation); format: biochemical; settings: Cyclin E/CDK2, Rb substrate, 33P-ATP, 25 minutes at room temperature; read-out: Inhibition of Cdk2 - IC50 Range
T1 construct: made in house; host or cells: insect cells
Experimental: To determine inhibition of CDK2 activity, purified recombinant retinoblastoma (Rb) protein was coated on 96 well FlashPlates (New England Nuclear, Boston, Mass.). Rb is a natural substrate for phosphorylation by CDK2 (Herwig and Strauss Eurr. J. Biochem., Vol. 246 (1997) pp. 581-601 and references therein). Recombinant active human Cyclin E/CDK2 complexes were partially purified from extracts of insect cells. The active Cyclin E/CDK2 was added to the Rb-coated FlashPlates along with ^33P-ATP and dilutions of test compounds. Plates were incubated for 25 minutes at room temperature with shaking, then washed and counted in the Topcount scintillation counter (Packard Instrument Co., Downers Grove, Ill.). Dilutions of test compounds were tested in duplicate in each assay. The percent inhibition of Rb phosphorylation, which is a measure of the inhibition of CDK2 activity, was determined according to the following formula: [formula] where “test compound” refers to the average counts per minute of the test duplicates, “nonspecific” refers to the average counts per minute when no Cyclin E/CDK2 was added, and “total” refers to the average counts per minute when no compound was added.

[4] = tested on: estrogen receptor negative epithelial breast carcinoma line (MDA-MB-435); assay: MDA-MB-435 cell-based antiproliferative (MTT) assay; settings: Homo sapiens, MDA-MB-435, 120 h, 2000 cells per well, 5 days post addition of test compound, read-out: Antiproliferative Activity of MDA-MB435 (breast) Assay - IC50 Range
Experimental: as §1, §2

| Structure (SMILES) | IC50 [1] [nM] | IC50 [2] [nM] | IC50 [3] [nM] | IC50 [4] [nM] |
| --- | --- | --- | --- | --- |
| c1ccc(C2=Nc3c[nH]nc3Nc3ccccc32)cc1 [Compound A9, 5-phenyl-pyrazolo[3,4][1,4]benzodiazepine] | 10000 to 30000 | 10000 to 30000 | 1000 to 9990 | – |
| Fc1ccccc1C1=Nc2c[nH]nc2Nc2ccccc21 [Compound A10, 5-(2-fluorophenyl)-pyrazolo[3,4][1,4]benzodiazepine] | 10000 to 30000 | 10000 to 30000 | 1000 to 9990 | – |
| O=[N+]([O-])c1ccc2c(c1)C(c1ccccc1)=Nc1c[nH]nc1N2 [Compound A16, 5-phenyl-7-nitro-pyrazolo[3,4][1,4]benzodiazepine] | – | 10000 to 30000 | 10 to 990 | – |
| Clc1ccccc1C1=Nc2c[nH]nc2Nc2ccccc21 [Compound A21, 5-(2-chlorophenyl)-pyrazolo[3,4][1,4]benzodiazepine] | 10000 to 30000 | 10000 to 30000 | 10 to 990 | – |
| Cc1[nH]nc2c1N=C(c1ccccc1Cl)c1cc(Cl)ccc1N2 [Compound B20, 3-methyl-5-(2-chlorophenyl)-7-chloro-pyrazolo[3,4][1,4]benzodiazepine] | 1100 to 9990 | – | 10 to 990 | 1100 to 9990 |
| Cc1[nH]nc2c1N=C(c1ccccc1)c1cc(F)ccc1N2 [Compound B22, 3-methyl-5-phenyl-7-fluoro-pyrazolo[3,4][1,4]benzodiazepine] | 1100 to 9990 | – | 10 to 990 | 10 to 1000 |
| O=[N+]([O-])c1ccc2c(c1)C(c1ccccc1Cl)=Nc1c(n[nH]c1-c1ccccc1)N2 [Compound B23, 3-phenyl-5-(2-chlorophenyl)-7-nitro-pyrazolo[3,4][1,4]benzodiazepine] | 10000 to 30000 | 10000 to 30000 | 10 to 990 | – |
| Cc1[nH]nc2c1N=C(c1ccccc1F)c1cc(I)ccc1N2 [Compound B29, 3-methyl-5-(2-fluorophenyl)-7-iodo-pyrazolo[3,4][1,4]benzodiazepine] | 1100 to 9990 | – | 10 to 990 | 10 to 1000 |
| Cc1[nH]nc2c1N=C(c1ccccc1F)c1cc([N+](=O)[O-])ccc1N2 [Compound B31, 3-methyl-5-(2-fluorophenyl)-7-nitro-pyrazolo[3,4][1,4]benzodiazepine] | 10 to 1000 | – | 10 to 990 | 10 to 1000 |
| N#Cc1ccc2c(c1)C(c1ccccc1F)=Nc1c(n[nH]c1CO)N2 [Compound B35, 3-hydroxymethyl-5-(2-fluorophenyl)-pyrazolo[3,4][1,4]-benzodiazepine-7-carbonitrile] | 10 to 1000 | – | 10 to 990 | 10 to 1000 |
| Cc1[nH]nc2c1N=C(c1ccccc1Cl)c1cc(N)ccc1N2 [Compound C4] | 10 to 1000 | – | 10 to 990 | 10 to 1000 |
| Cc1[nH]nc2c1N=C(c1ccccc1Cl)c1cc(NS(C)(=O)=O)ccc1N2 [Compound C9, N-(3-methyl-5-(2-chlorophenyl)-pyrazolo[3,4][1,4]benzodiazepin-7-yl)-methanesulfonamide] | 10 to 1000 | – | 10 to 990 | 10 to 1000 |
| NNC(=O)c1[nH]nc2c1N=C(c1ccccc1Cl)c1cc([N+](=O)[O-])ccc1N2 [Compound C12, N-amino-5-(2-chlorophenyl)-7-nitro-pyrazolo[3,4][1,4]benzodiazepine-3-carboxamide] | 10000 to 30000 | 1100 to 9990 | 10 to 990 | – |
| O=[N+]([O-])c1ccc2c(c1)C(c1ccccc1Cl)=Nc1c(n[nH]c1CO)N2 [Compound C14, 3-hydroxymethyl-5-(2-chlorophenyl)-7-nitro-pyrazolo[3,4][1,4]benzodiazepine] | 10 to 1000 | – | 10 to 990 | 10 to 1000 |
| COCc1[nH]nc2c1N=C(c1ccccc1Cl)c1cc([N+](=O)[O-])ccc1N2 [Compound C16, 3-methoxymethyl-5-(2-chlorophenyl)-7-nitro-pyrazolo[3,4][1,4]benzodiazepine] | – | – | 10 to 990 | 1100 to 9990 |
| N#Cc1[nH]nc2c1N=C(c1ccccc1Cl)c1cc([N+](=O)[O-])ccc1N2 [Compound C18, 5-(2-chlorophenyl)-7-nitro-pyrazolo[3,4][1,4]benzodiazepine-3-carbonitrile] | – | – | 10 to 990 | 10000 to 30000 |
| CSc1ccc(-c2[nH]nc3c2N=C(c2ccccc2Cl)c2cc([N+](=O)[O-])ccc2N3)cc1 [Compound D11] | – | 10000 to 30000 | 10 to 990 | – |
| O=[N+]([O-])c1ccc2c(c1)C(c1ccccc1)=Nc1c(n[nH]c1C1CC1)N2 [Compound D18] | – | 10000 to 30000 | 10 to 990 | – |

The next lines start with the values.

| IC50 [1] [nM] | IC50 [2] [nM] | IC50 [3] [nM] | IC50 [4] [nM] | Structure (SMILES) |
| --- | --- | --- | --- | --- |
| – | 10000 to 30000 | 1000 to 9990 | – | CS(=O)(=O)c1ccc2c(c1)C(c1ccccc1)=Nc1c[nH]nc1N2 [Compound A14, 5-phenyl-7-methanesulfonyl-pyrazolo[3,4][1,4]benzodiazepine] |
| 1100 to 9990 | 1100 to 9990 | 10 to 990 | – | O=[N+]([O-])c1ccc2c(c1)C(c1ccccc1Cl)=Nc1c(n[nH]c1-c1ccc[nH]1)N2 [Compound B1, 3-(2-pyrrolyl)-5-(2-chlorophenyl)-7-nitro-pyrazolo[3,4][1,4]benzodiazepine] |
| 1100 to 9990 | – | 10 to 990 | 1100 to 9990 | COc1ccc2c(c1)C(c1ccccc1Cl)=Nc1c(n[nH]c1C)N2 [Compound B18, 3-methyl-5-(2-chlorophenyl)-7-methoxy-pyrazolo[3,4][1,4]benzodiazepine] |
| 1100 to 9990 | – | 10 to 990 | 1100 to 9990 | Cc1[nH]nc2c1N=C(c1ccccc1)c1cc(Cl)ccc1N2 [Compound B19, 3-methyl-5-phenyl-7-chloro-pyrazolo[3,4][1,4]benzodiazepine] |
| 10 to 1000 | – | 10 to 990 | 1100 to 9990 | Cc1[nH]nc2c1N=C(c1ccccc1F)c1ccccc1N2 [Compound B21, 3-methyl-5-(2-fluorophenyl)-pyrazolo[3,4][1,4]benzodiazepine] |
| 1100 to 9990 | – | 10 to 990 | 1100 to 9990 | Cc1[nH]nc2c1N=C(c1ccccc1Cl)c1ccccc1N2 [Compound B30, 3-methyl-5-(2-chlorophenyl)-pyrazolo[3,4][1,4]benzodiazepine] |
| – | 10000 to 30000 | 10 to 990 | – | O=C(NCCO)c1ccc2c(c1)C(c1ccccc1F)=Nc1c[nH]nc1N2 [Compound C2, N-(2-hydroxyethyl)-5-(2-fluorophenyl)-pyrazolo[3,4][1,4]benzodiazepine-7-carboxamide] |
| 10 to 1000 | – | 10 to 990 | 10 to 1000 | CC(=O)Nc1ccc2c(c1)C(c1ccccc1Cl)=Nc1c(n[nH]c1C)N2 [Compound C7, N-(3-methyl-5-(2-chlorophenyl)-pyrazolo[3,4][1,4]benzodiazepin-7-yl)-acetamide] |
| 10 to 1000 | – | 10 to 990 | 10 to 1000 | C=CC(=O)Nc1ccc2c(c1)C(c1ccccc1Cl)=Nc1c(n[nH]c1C)N2 [Compound C8, N-(3-methyl-5-(2-chlorophenyl)-pyrazolo[3,4][1,4]benzodiazepin-7-yl)-2-propenamide] |
| – | – | 10 to 990 | 10 to 1000 | C=Cc1[nH]nc2c1N=C(c1ccccc1Cl)c1cc([N+](=O)[O-])ccc1N2 [Compound C17, 3-ethenyl-5-(2-chlorophenyl)-7-nitro-pyrazolo[3,4][1,4]benzodiazepine] |
